Experimental data reported in patent US20220089540A1 (Board of Trustees of Michigan State University, priority 2019, published 2022).
Where “and” joins values, the source holds several entries; their conditions need not be identical. Equal entries are not always repeated.

Key:
[1] = tested on: inducible nitric oxide synthase (iNOS); assay: iNOS suppression / NO assay in LPS-stimulated macrophages or RAW264.7 cells (Griess reaction); assay type: cell-based, mouse; details: Mus musculus; for activity at 0.1 µM / activity at 0.3 µM: RAW264.7, 24 h, percent of the LPS-stimulated control, lower is better, Table 6; for activity at 0.1 µM: at 100 nM; for activity at 0.3 µM: at 300 nM, read-out: iNOS suppression
Method: Macrophages or RAW264.7 like-cells were treated with various concentrations of rexinoids and stimulated with lipopolysaccaride (LPS) to activate inducible nitric oxide synthase (iNOS) to produce nitric oxide. This in vitro iNOS assay was rapid, reproducible, quantitative and predictive. Nitric oxide is implicated in the apoptosis of cancer cells via regulation of RXRs. There is a tight correlation between the % reduction of iNOS and efficacy in preclinical lung cancer models. Lower numbers indicate higher efficacy.
RAW264.7 cells were incubated with 300 nM rexinoids and stimulated with 1-2 ng/ml lipopolysaccaride (LPS) for 24 hours to activate inducible nitric oxide synthase (iNOS) to produce nitric oxide. Nitric oxide released into the media was measured by the Griess reaction.
Also, for Table 6, the iNOS suppression is the percent of the LPS-stimulated control where the compounds were measured at 100 nM or 300 nM.
Macrophages or RAW264.7 cells were treated with various concentrations of rexinoids listed in Table 7 and stimulated with lipopolysaccaride (LPS) to activate inducible nitric oxide synthase (iNOS) to produce nitric oxide. Nitric oxide (NO) is implicated in the apoptosis of cancer cells via regulation of RXRs. There is a tight correlation between the % reduction of iNOS and efficacy in preclinical lung cancer models. The in vitro iNOS assay is rapid, reproducible, quantitative and predictive, as NO production is measured in culture medium using the Griess reaction. Values are either presented as % inhibition or IC50 values.

PD-L1 = PD-L1 induction in macrophages or RAW264.7 cells with cancer cell conditioned media (flow cytometry); assay type: cell-based, mouse; details: 100 nM; Table 2; Control 39.8; higher numbers indicate better upregulation
Method: RAW 264.7 mouse macrophage-like (ATCC) and E18-14C-27 (Wu et al., Cancer Res. 62, 6376-6380 (2002)) cells were cultured in DMEM supplemented with 10% fetal bovine serum (FBS). RAW 264.7 cells were cultured at 50000/well in a 6 well plate for 24 hours to determine PD-L1 levels. E18-14C-27 cells were cultured for 72 hours in the presence of LG268 for protein levels. Conditioned media was collected from E18-14C-27 at 60-70% confluence for 24 hours; media was then collected and centrifuged at 900 rpm for 5 minutes to eliminate any cell debris.
For PD-L1 staining, RAW 264.7 cells were plated at 25000 cells/ml in 6 well plates for 24 hours before adding conditioned media from E18-14C-27 and LG268. RAW 264.7 cells were cultured for additional 24 hours with E18-14C-27 conditioned media and LG268. […] THP-1 cells were stained and analyzed for the levels of PD-L1 following the same protocol.
Inhibitory receptors on lymphocytes such as PD-1 (programmed cell death protein 1) are important immune checkpoints that protect against autoimmunity as the interaction between PD-L1 (ligand) and the PD-1 receptor expressed on immune cells suppresses T cell activity. Immuno-oncology is revolutionizing cancer treatment, and enormous research efforts are ongoing to identify drugs that upregulate PD-L1 so that they can be combined with checkpoint inhibitors to boost efficacy. Macrophages or RAW264.7 cells are treated with conditioned media from cancer cells and rexinoids, and PD-L1 expression determined by flow cytometry. Higher numbers indicate better upregulation of PD-LI.
Using methods described herein, macrophages or RAW264.7 cells were treated with selected rexinoids and with conditioned media from cancer cells. Structures of the rexinoids are shown below.
PD-L1 expression was determined by flow cytometry.

human RXRa = molecular target: T1, human RXRa (Homo sapiens, UniProt P19793); assay: RXR activation luciferase reporter assay; assay type: cell-based; details: for RXR assay: luciferase, Control 0, higher numbers indicate higher potency; for EC50: Table 6, read-out: RXRα activation (EC50)
T1 sequence (P19793 1-462): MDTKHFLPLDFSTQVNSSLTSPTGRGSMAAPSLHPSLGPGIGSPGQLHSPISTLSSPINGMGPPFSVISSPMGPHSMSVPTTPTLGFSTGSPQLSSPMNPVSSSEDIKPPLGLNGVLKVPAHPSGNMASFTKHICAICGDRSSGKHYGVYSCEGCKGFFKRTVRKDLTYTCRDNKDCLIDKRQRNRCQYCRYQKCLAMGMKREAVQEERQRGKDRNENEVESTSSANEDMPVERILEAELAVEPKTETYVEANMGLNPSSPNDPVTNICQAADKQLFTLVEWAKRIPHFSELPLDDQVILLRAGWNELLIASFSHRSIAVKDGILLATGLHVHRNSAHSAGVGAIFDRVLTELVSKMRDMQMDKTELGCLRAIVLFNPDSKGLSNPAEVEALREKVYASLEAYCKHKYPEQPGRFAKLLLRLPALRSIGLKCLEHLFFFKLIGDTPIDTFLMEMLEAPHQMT
Description: Rexinoids are agonists for the retinoid X receptors (RXRs). In this assay, the human RXRa promoter is functionally linked to a luciferase reporter gene. Changes in luciferase expression served as a sensitive surrogate measure of RXR activity. Higher numbers indicate higher potency.

[2] = Toxicity in A/J mice with lung tumors fed rexinoids plus carboplatin and paclitaxel; assay type: in vivo; details: 100 mg/kg diet, 7 weeks
Method: A/J mice with lung tumors (detected by ultrasound) were fed rexinoids in their diets (at 100 mg/kg diet) and injected twice every other week with carboplatin and paclitaxel.

SREBP = SREBP induction in human liver (HepG2) cells, RT-PCR; assay type: cell-based; design: key to SREBP: fold induction vs DMSO control; details: for SREBP activation: fold induction compared to DMSO, several values per cell, Table 6
Method: The SREBP transcription factor is involved in triglyceride synthesis, and its activation correlates with increased triglycerides in vivo. […] Lower numbers indicate better safety. […] Lower numbers indicate better safety. Also, for Table 6, SREBP activation was measured as fold induction compared to DMSO, where a lower value indicates the compound is an improvement over a control.

[3] = Triglycerides in rodent models; assay type: in vivo
Lung Cancer Model = assay: Lung cancer model rank order; assay type: in vivo
LogD at pH 7.4 = assay type: physicochemical; details: pH 7.4 buffer
Method: Note that for Table 6, Log D is the distribution constant, which is descriptor of the lipophilicity of a molecule. This was determined using an aqueous phase that was adjusted to pH 7.4 using a buffer.

In the case of `CC(C)CN(c1cc(C(C)(C)C)cc(C(C)(C)C)c1)c1ccc(C(=O)O)cn1` [Compound 18, 6-[(3,5-di-tert-butylphenyl)(2-methylpropyl)amino]pyridine-3-carboxylic Acid], the activity at 0.125 µM ([1]; RAW264.7, 125 nM, Control 100, lower numbers indicate higher efficacy, read-out: NO Assay) is reported as 52%, the activity at 0.5 µM ([1]; RAW264.7, 500 nM, Control 100, lower numbers indicate higher efficacy, read-out: NO Assay) is reported as 11.5% and the PD-L1 (PD-L1) is reported as 58.5. For the same molecule, the RXR assay (human RXRa; 100 nM) was 12881, the RXR assay (human RXRa; 2500 nM) was 35605 and the “toxicity findings (liver, triglycerides, cholesterol, fur)” value [2] was “normal coats”. For the same molecule, the “toxicity findings (liver, triglycerides, cholesterol, fur)” value ([2]; listed as MSU-42011) was “less toxicity than LG100268” and the SREBP (SREBP; 300 nM, Control 1.00, lower numbers indicate better safety, Table 2) was 1.52.

For `Cc1cc2c(cc1C1(c3ccc(C(=O)O)cn3)CC1)C(C)(C)CCC2(C)C` [drawing 95, reference compound], the “Triglyccerides (Rodent Models)” value [3] was “Elevated”, the activity at 0.1 µM [1] was 15 to 20% and the “Lung Cancer Model Rank Order” value (Lung Cancer Model) was 1. The SREBP activation (SREBP) was 3.9 fold induction and 3.1 fold induction and 3.2 fold induction.

For `C/C(=C/C=C/C(C)=C/C(=O)O)c1cc(C(C)(C)C)cc(C(C)(C)C)c1OCC(F)F` [drawing 96], the “Triglyccerides (Rodent Models)” value [3] was “No Elevation”, the activity at 0.1 µM [1] was 30 to 35% and the “Lung Cancer Model Rank Order” value (Lung Cancer Model) was 4.

With `Cc1cc2c(cc1C1(c3ncc(C(=O)O)cn3)CC1)C(C)(C)CCC2(C)C` [drawing 98, reference compound] the “Triglyccerides (Rodent Models)” value [3] was “Modest Elevation”, the activity at 0.1 µM [1] was roughly 25% and the EC50 (human RXRa) was 25 to 50 nM. The “Lung Cancer Model Rank Order” value (Lung Cancer Model) was 3 and the SREBP activation (SREBP) was roughly 1.25 fold induction.

With `CCN(c1cc(C(C)(C)C)cc(C(C)(C)C)c1)c1ccc(C(=O)O)cn1` [drawing 105] the activity at 0.3 µM [1] was 30%, the logD (LogD at pH 7.4) was 2.9 and the SREBP activation (SREBP) was 1.6 fold induction and 2.85 fold induction and 3.1 fold induction.

With `CCN(c1cc(C(C)(C)C)cc(C(C)(C)C)c1)c1ncc(C(=O)O)cn1` [drawing 106] the activity at 0.3 µM [1] was 55%, the logD (LogD at pH 7.4) was 2.3 and the SREBP activation (SREBP) was 3.5 fold induction and 1.8 fold induction.

`C=C(c1ccc(C(=O)O)cc1)c1ccc(OCC(C)C)c(C(C)C)c1` [drawing 110] gave an activity at 0.3 µM [1] of 75%, a logD (LogD at pH 7.4) of 3 and an SREBP activation (SREBP) of 2 fold induction.

Molecule `C=C(c1ccc(C(=O)O)cc1)c1cc(C(C)C)c(OCC(C)C)cc1C` [drawing 111] has an activity at 0.3 µM [1] of 40%, a logD (LogD at pH 7.4) of 3.5 and an SREBP activation (SREBP) of 1.2 fold induction.

Molecule `C=C(c1ccc(C(=O)O)cc1)c1cc(C(C)C)c(OC(C)C)cc1C` [drawing 114] has an activity at 0.3 µM [1] of 40%, a logD (LogD at pH 7.4) of 3.1 and an SREBP activation (SREBP) of 4.7 fold induction.

For `C=C(c1ccc(C(=O)O)cc1)c1cc(C(C)C)c(OCC)cc1C` [drawing 115], the activity at 0.3 µM [1] was 45%, the logD (LogD at pH 7.4) was 2.6 and the SREBP activation (SREBP) was 1.4 fold induction.

`CCCN(c1cc(C(C)(C)C)cc(C(C)(C)C)c1)c1ccc(C(=O)O)cn1` [drawing 117] gave an activity at 0.1 µM [1] of 22%, an activity at 0.3 µM [1] of 13% and a logD (LogD at pH 7.4) of 3.4. The SREBP activation (SREBP) was 1.95 fold induction and 2.9 fold induction.

Work on `CCN(c1cc(C(F)(F)F)cc(C(F)(F)F)c1)c1ccc(C(=O)O)cn1` [drawing 119] yielded an activity at 0.1 µM [1] of 24%, an activity at 0.3 µM [1] of 15% and a logD (LogD at pH 7.4) of 1.5. The SREBP activation (SREBP) was 0.95 fold induction and 1.2 fold induction.

Molecule `CCN(c1ccc(C(=O)O)cc1)c1cc(C(C)C)c(OCC(C)C)cc1C` [drawing 120] has an activity at 0.3 µM [1] of 86%, a logD (LogD at pH 7.4) of 3.8 and an SREBP activation (SREBP) of 1.3 fold induction.

Work on `CCN(c1ccc(C(=O)O)cc1)c1cc(C(C)(C)C)c(OC)c(C(C)(C)C)c1` [drawing 121] yielded an activity at 0.3 µM [1] of 74%, a logD (LogD at pH 7.4) of 3.8 and an SREBP activation (SREBP) of 1.45 fold induction.

With `CC(/C=C/[C@@H]1C[C@]1(C)c1cc2c(cc1C)C(C)(C)CCC2(C)C)=C\C(=O)O` [reference compound] the “Triglyccerides (Rodent Models)” value [3] was “Elevated”, the activity at 0.1 µM [1] was 15 to 20% and the EC50 (human RXRa) was 1 to 25 nM. The “Lung Cancer Model Rank Order” value (Lung Cancer Model) was 2 and the SREBP activation (SREBP) was roughly 3.6 fold induction.

In the case of `CCN(c1ccc(OCC(C)C)c(C(C)C)c1)c1ccc(C(=O)O)cn1` [reference compound], the “Triglyccerides (Rodent Models)” value [3] is reported as “Modest elevation in female rats” and the EC50 (human RXRa) is reported as 50 to 200 nM.

In the case of `Cc1cc2c(cc1-n1c(C(F)(F)F)nc3cc(C(=O)O)ccc31)C(C)(C)CCC2(C)C` [reference compound], the “Triglyccerides (Rodent Models)” value [3] is reported as “No elevation (mice)” and the EC50 (human RXRa) is reported as 1 to 25 nM.

In the case of `CCN(c1ccc2c(c1)C(C)(C)CCC2(C)C)c1ccc(C(=O)O)cn1` [reference compound], the “Triglyccerides (Rodent Models)” value [3] is reported as “Elevated (mice)” and the EC50 (human RXRa) is reported as 1 to 25 nM.
